Reference: patent US9493451B2 (Bionomics Limited, priority 2011, dated 2016)

Target: T1, Kv1.3 (Homo sapiens, UniProt P22001)
T1 construct: expressed in transfected cells; host or cells: CHO (Kv1.3/CHO)
Test: Electrophysiology: planar patch-clamp of Kv1.3 currents, IC50 from steady state current amplitude
Type: cell-based
Conditions: Kv1.3 electrophysiology, results according to Method D1, read-out: IC50 (Kv1.3 ephys steady state)
In short: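 Planar patch-clamp, whole-cell, Kv1.3/CHO cells; 500 ms pulses to +40 mV from −80 mV every 30 s; bath pH 7.4, pipette pH 7.2; 0.5% DMSO final. 5-6 cumulative concentrations on 2-3 cells to steady-state block; IC50 from Hill fit of normalised steady-state current at pulse end.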

T1 sequence (P22001 whole entry): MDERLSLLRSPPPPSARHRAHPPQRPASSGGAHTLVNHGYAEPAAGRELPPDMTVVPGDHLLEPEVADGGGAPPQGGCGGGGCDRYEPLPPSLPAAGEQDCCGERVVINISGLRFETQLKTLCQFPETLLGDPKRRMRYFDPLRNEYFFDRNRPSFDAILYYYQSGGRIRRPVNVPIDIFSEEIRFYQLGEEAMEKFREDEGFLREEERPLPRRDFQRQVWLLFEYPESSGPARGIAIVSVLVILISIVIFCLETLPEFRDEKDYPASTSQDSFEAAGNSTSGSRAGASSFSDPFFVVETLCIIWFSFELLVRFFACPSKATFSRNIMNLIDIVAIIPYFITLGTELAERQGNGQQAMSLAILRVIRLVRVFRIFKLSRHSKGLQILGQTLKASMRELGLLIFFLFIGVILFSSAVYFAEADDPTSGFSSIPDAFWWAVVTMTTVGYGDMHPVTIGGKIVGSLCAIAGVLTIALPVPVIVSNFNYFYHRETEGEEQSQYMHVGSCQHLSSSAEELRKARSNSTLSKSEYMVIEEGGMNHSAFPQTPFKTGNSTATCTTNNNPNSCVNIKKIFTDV

| Structure (SMILES) | IC50 [nM] |
| --- | --- |
| C[C@H](CC(=O)N(Cc1ccccn1)C(c1ccc(Cl)cc1)C1CC1)c1ccc(F)cc1 (single isomer, unassigned) [Example 5] | < 50 |
| CN1C2CCC1CC(N(C(=O)CS(=O)(=O)c1ccc(F)cc1)C(c1ccc(Cl)cc1)C1CC1)C2 (stereo not drawn) [Example 80, N-[(4-chlorophenyl)(cyclopropyl)methyl]-2-[(4-fluorophenyl)sulfonyl]-N-(8-methyl-8-azabicyclo[3.2.1]octan-3-yl)acetamide] | 200 to 1000 |
| O=C(CS(=O)(=O)c1ccc(F)cc1)N(C1CCC(F)(F)CC1)C(c1ccc(OC(F)F)cc1)C1CC1 (stereo not drawn) [Example 315] | 200 to 1000 |
| CCC(c1ccc(S(C)(=O)=O)cc1)N(Cc1ccc(C(F)(F)F)nc1)C(=O)C1CC1c1ccc(F)cc1F (stereo not drawn) [Example 129] | 50 to 200 |
| O=C(CS(=O)(=O)c1ccc(F)cc1)N(C1CCNCC1)C(c1ccc(OC(F)F)cc1)C1CC1 (stereo not drawn) [Example 298] | 200 to 1000 |
| CN1CCC(C(c2ccc(F)cc2F)N(Cc2ccc(F)cn2)C(=O)C2CC2c2ccc(F)cc2)CC1 (stereo not drawn) [Example 144] | 200 to 1000 |
| O=C(CS(=O)(=O)c1ccc(F)cc1)N(Cc1ccc(F)nc1)C(c1ccc(Cl)cc1)C1CC1 (stereo not drawn) [Example 291] | 50 to 200 |
| CC(CC(=O)N(Cc1ccc(F)cn1)C(c1ccc(F)cc1F)C1CCN(C)CC1)c1ccc(F)cc1 (stereo not drawn) [Example 271] | 200 to 1000 |
| CC(CC(=O)N(Cc1ccccn1)C(c1ccc2c(c1)S(=O)(=O)C(C)(C)O2)C1CC1)c1ccc(F)cc1 (single isomer, unassigned) [Example 74, N-[cyclopropyl(2,2-dimethyl-3,3-dioxido-1,3-benzoxathiol-5-yl)methyl]-3-(4-fluorophenyl)-N-(pyridin-2-ylmethyl)butanamide] | < 50 |
| CCC(c1ccc(S(=O)(=O)CC)cc1)N(Cc1ccc(C(F)(F)F)nc1)C(=O)C1CC1c1ccc(F)cc1F (stereo not drawn) [Example 119] | 50 to 200 |
| N#Cc1cccc(C(C2CC2)N(Cc2ccc(C(F)(F)F)nc2)C(=O)CS(=O)(=O)c2ccc(F)cc2)c1 (stereo not drawn) [Example 333] | 200 to 1000 |
| CC(CC(=O)N(Cc1ccc(C(F)(F)F)nc1)C(C)c1ccc2c(c1)CCC2)c1ccc(F)cc1 (single isomer, unassigned) [Compound 40, N-[1-(2,3-dihydro-1H-inden-5-yl)ethyl]-3-(4-fluorophenyl)-N-{[6-(trifluoromethyl)pyridin-3-yl]methyl}butanamide] | 50 to 200 |
| CC(CC(=O)N(Cc1ccc(C(F)(F)F)nc1)C(C)c1ccc2c(c1)CCC2)c1ccc(F)cc1 (single isomer, unassigned) [Compound 39, N-[1-(2,3-dihydro-1H-inden-5-yl)ethyl]-3-(4-fluorophenyl)-N-{[6-(trifluoromethyl)pyridin-3-yl]methyl}butanamide] | 50 to 200 |
| CN1CCC(C(c2ccc(F)cc2F)N(Cc2ncccc2F)C(=O)C2CC2c2ccc(F)cc2)CC1 (stereo not drawn) [Example 145] | 200 to 1000 |
| COc1ccccc1[C@H](C)N(Cc1ccccn1)C(=O)CCc1ccc(F)cc1 [Example 55, 3-(4-fluorophenyl)-N-[(1S)-1-(2-methoxyphenyl)ethyl]-N-(pyridin-2-ylmethyl)propanamide] | 200 to 1000 |
| O=C(CS(=O)(=O)c1ccc(F)cc1)N(Cc1ccc(F)cn1)C(c1ccc(Cl)cc1)C1CC1 (stereo not drawn) [Example 290] | 50 to 200 |
| O=C(CS(=O)(=O)c1ccc(F)cc1)N(Cc1ccc(C(F)(F)F)nc1)C(c1ccccc1OCC(F)F)C1CC1 (stereo not drawn) [Example 330] | 50 to 200 |
| CCS(=O)(=O)c1cccc(C(C2CC2)N(C(=O)C2CC2c2ccc(F)cc2)C2CCC(F)(F)CC2)c1 (stereo not drawn) [Example 219] | 50 to 200 |
| C[C@@H](CC(=O)N(Cc1ccccn1)C(c1ccc(Cl)cc1)C1CC1)c1ccc(F)cc1 (single isomer, unassigned) [Example 8] | < 50 |
| C[C@@H](CC(=O)N(Cc1ccccn1)[C@H](c1ccc(Cl)cc1)C1CC1)S(=O)(=O)c1ccc(F)cc1 (single isomer, unassigned) [Example 76, N-[(4-chlorophenyl)(cyclopropyl)methyl]-3-[(4-fluorophenyl)sulfonyl]-N-(pyridin-2-ylmethyl)butanamide] | < 50 |
| CC(c1ccc(Cl)cc1)N(C(=O)CS(=O)(=O)c1ccc(F)cc1)C1CC2CCC(C1)N2C (stereo not drawn) [Example 280] | 200 to 1000 |

The next lines start with the values.

| IC50 [nM] | Structure (SMILES) |
| --- | --- |
| 50 to 200 | O=C(C1CC1c1ccccc1OC(F)(F)F)N(Cc1cccnn1)C(c1ccc(OC(F)F)cc1)C1CC1 (stereo not drawn) [Example 188] |
| 50 to 200 | CCS(=O)(=O)c1cccc(C(C2CC2)N(Cc2ccccn2)C(=O)C2CC2c2cccc(C(F)(F)F)c2)c1 (stereo not drawn) [Example 217] |
| 50 to 200 | CC(C)(C(=O)N(Cc1ccccn1)C(c1ccc(OC(F)F)cc1)C1CC1)S(=O)(=O)c1ccc(F)cc1 (stereo not drawn) [Example 318] |
| 50 to 200 | O=C(C1CC1c1ccc(F)cc1)N(Cc1ccccn1)C(c1ccc(Cl)cc1)C1CC1 (stereo not drawn) [Example 10, N-[(4-chlorophenyl)(cyclopropyl)methyl]-2-(4-fluorophenyl)-N-(pyridin-2-ylmethyl)cyclopropanecarboxamide] |
| 50 to 200 | CC(C)S(=O)(=O)c1ccc(C(C2CC2)N(Cc2cccnn2)C(=O)C2CC2c2ccc(F)cc2)cc1 (stereo not drawn) [Example 236] |
| 50 to 200 | CC(C)S(=O)(=O)c1ccc(C(C2CC2)N(Cc2ccc(F)cn2)C(=O)C2CC2c2ccc(F)cc2)cc1 (stereo not drawn) [Example 238] |
| 50 to 200 | CC(C)S(=O)(=O)c1cccc(C(C2CC2)N(Cc2ccncn2)C(=O)C2CC2c2ccc(F)cc2)c1 (stereo not drawn) [Example 247] |
| 200 to 1000 | CC(C)S(=O)(=O)c1cccc(C(C2CC2)N(Cc2cccnn2)C(=O)C2CC2c2ccc(F)cc2)c1 (stereo not drawn) [Example 240] |
| 200 to 1000 | CC(CC(=O)N(Cc1cccnn1)C(c1ccc(OC(F)F)cc1)C1CC1)c1ccccc1C(F)(F)F (stereo not drawn) [Example 261] |
| 50 to 200 | O=C(CS(=O)(=O)c1ccccc1)N(Cc1ccc(C(F)(F)F)nc1)C(c1ccc(OC(F)F)cc1)C1CC1 (stereo not drawn) [Example 302] |
| 50 to 200 | CCS(=O)(=O)c1cccc(C(C2CC2)N(Cc2ccc(F)cn2)C(=O)C2CC2c2ccc(OC(F)F)cc2)c1 (stereo not drawn) [Example 222] |
| 200 to 1000 | O=C(C1CC1c1ccc(F)cc1)N(Cc1ccc(F)cn1)C(c1ccc(OC(F)F)cc1)C1CNC1 (stereo not drawn) [Example 152] |
| < 50 | O=C([C@@H]1C[C@H]1c1ccc(F)cc1)N(Cc1cccnn1)[C@@H](c1ccc(OC(F)F)cc1)C1CC1 [Example 97, (1R,2R)-2-(4-Fluoro-phenyl)-cyclopropanecarboxylic acid [(R)-cyclopropyl-(4-difluoromethoxy-phenyl)-methyl]-pyridazin-3-ylmethyl-amide] |
| 50 to 200 | O=C(CS(=O)(=O)c1ccc(F)cc1)N(Cc1ccccn1)C(c1ccccc1OCC(F)F)C1CC1 (stereo not drawn) [Example 329] |
| 50 to 200 | CCS(=O)(=O)c1cccc([C@H](C2CC2)N(Cc2ccc(C(F)(F)F)nc2)C(=O)[C@@H]2C[C@H]2c2ccc(F)cc2)c1 [Example 100, (1R, 2R)-2-(4-Fluoro-phenyl)-cyclopropanecarboxylic acid [(S)-cyclopropyl-(3-ethanesulfonyl-phenyl)-methyl]-(6-trifluoromethyl-pyridin-3-ylmethyl)-amide] |
| 50 to 200 | O=C(C1CC1c1ccc(F)cc1)N(Cc1ncccc1F)C(c1ccc(F)cc1)C1CCOC1 (stereo not drawn) [Example 172] |
| 200 to 1000 | CCS(=O)(=O)c1cccc(C(C2CC2)N(C(=O)C2CC2c2ccccc2OC(F)(F)F)C2CCOCC2)c1 (stereo not drawn) [Example 221] |
| 200 to 1000 | O=C(N(Cc1ccccn1)[C@@H](c1ccc(OC(F)F)cc1)C1CC1)C1(S(=O)(=O)c2ccc(F)cc2)CC1 [Example 91, N-{cyclopropyl[4-(difluoromethoxy)phenyl]methyl}-1-[(4-fluorophenyl)sulfonyl]-N-(pyridin-2-ylmethyl)cyclopropanecarboxamide] |
| 50 to 200 | CC(CC(=O)N(Cc1ccc(C(F)(F)F)nc1)C(c1ccc(OC(F)F)cc1)C1CC1)c1ccccc1S(C)(=O)=O (stereo not drawn) [Example 263] |
| 200 to 1000 | CN1CC(C(c2ccc(F)cc2)N(Cc2ncccc2F)C(=O)C2CC2c2ccc(F)cc2)C1 (stereo not drawn) [Example 155] |
| 1000 to 2000 | O=C(C1CC1c1ccc(F)cc1)N(Cc1ccc(F)cn1)C(c1ccc(OC(F)F)cc1)C1CNC1 (stereo not drawn) [Example 153] |
| 200 to 1000 | CC(C)S(=O)(=O)c1ccc(C(C2CC2)N(Cc2ccc(F)cn2)C(=O)C2CC2c2ccc(F)cc2)cc1 (stereo not drawn) [Example 239] |
| 1000 to 2000 | CCC(c1ccc(S(=O)(=O)CC)cc1)N(Cc1cccnn1)C(=O)C1CC1c1ccc(F)cc1 (stereo not drawn) [Example 118] |
| 50 to 200 | CC(CC(=O)N(Cc1cccnn1)C(c1ccc(OC(F)F)cc1)C1CC1)c1ccccc1C(F)(F)F (stereo not drawn) [Example 260] |
| < 50 | CCS(=O)(=O)c1cccc([C@@H](C2CC2)N(Cc2ccc(C(F)(F)F)nc2)C(=O)[C@@H]2C[C@H]2c2ccc(F)cc2)c1 (single isomer, unassigned) [Example 99] |
| 200 to 1000 | CN1CC(C(c2ccc(OC(F)F)cc2)N(Cc2ccc(F)cn2)C(=O)C2CC2c2ccc(F)cc2)C1 (stereo not drawn) [Example 154] |
| 50 to 200 | O=C(CS(=O)(=O)c1ccccc1)N(Cc1ncccc1F)C(c1ccc(OC(F)F)cc1)C1CC1 (stereo not drawn) [Example 303] |
